Target: T1, MLLT1 (Homo sapiens, UniProt Q03111)
T1 construct: endogenous in cells; host or cells: MV4-11 (ATCC CRL-9591)
T1 sequence (Q03111 1-559): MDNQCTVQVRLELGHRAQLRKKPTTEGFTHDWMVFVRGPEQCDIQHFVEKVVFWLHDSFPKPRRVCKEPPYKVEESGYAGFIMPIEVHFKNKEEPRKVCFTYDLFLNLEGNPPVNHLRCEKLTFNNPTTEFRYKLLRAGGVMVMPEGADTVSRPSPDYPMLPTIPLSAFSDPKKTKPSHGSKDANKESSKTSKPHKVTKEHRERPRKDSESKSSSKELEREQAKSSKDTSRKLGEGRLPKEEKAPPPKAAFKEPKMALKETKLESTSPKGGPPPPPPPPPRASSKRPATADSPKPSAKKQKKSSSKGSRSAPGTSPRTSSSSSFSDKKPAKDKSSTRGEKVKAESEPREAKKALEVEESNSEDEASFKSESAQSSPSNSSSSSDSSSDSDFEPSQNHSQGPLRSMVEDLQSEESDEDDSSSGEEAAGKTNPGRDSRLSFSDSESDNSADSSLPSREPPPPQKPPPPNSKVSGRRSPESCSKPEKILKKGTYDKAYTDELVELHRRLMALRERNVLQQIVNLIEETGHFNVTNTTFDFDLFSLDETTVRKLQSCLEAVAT
Test: MLLT1 Degradation Assay (JESS automated chemiluminescent detection, MV4-11 cells)
Assay type: cell-based
Settings: 24h, with respect to DMSO control; for MLLT1 % Degradation @ 0.01 µM: 0.01 µM (10 nM) test compound; for MLLT1 % Degradation @ 0.1 µM: 0.1 µM (100 nM) test compound; for MLLT 1 % Degradation @ 1 µM: 1 µM (1000 nM) test compound
Experimental: MLLT1 degradation efficacy of compounds were tested in an automated chemiluminescent detection system (JESS, Cat# 004-650). […] 10 mM DMSO stocks were prepared, and cells were treated with three concentrations of test compounds viz. 1000, 100 and 10 nM at a final DMSO concentration of 0.1% and incubated for 24h at 37°C, 5% CO2. […] Post run, data were analysed using "Compass for SW" software for chemiluminescent detection. The peak area for each band was used for the calculation of MLLT1 degradation with respect to DMSO control. Data is shown as "MLLT1 % degradation".

Structure (SMILES)	MLLT1 % Degradation @ 0.01 µM	MLLT1 % Degradation @ 0.1 µM	MLLT 1 % Degradation @ 1 µM
CN1CCC[C@@H]1c1cc2cnc(NC(=O)c3ccc(N4CCC(OCC5CCN(c6cccc7c6C(=O)N(C6CCC(=O)NC6=O)C7=O)CC5)CC4)nc3)cc2[nH]1 (stereo partly drawn) [Example 18, 6-(4-((1-(2-(2,6-dioxopiperidin-3-yl)-1,3-dioxoisoindolin-4-yl)piperidin-4-yl)methoxy)piperidin-1-yl)-N-(2-((R)-1-methylpyrrolidin-2-yl)-1H-pyrrolo[3,2-c]pyridin-6-yl)nicotinamide]	B (Category B: 50% ≤ B < 75% degradation)	A (Category A: A ≥ 75% degradation)	A (Category A: A ≥ 75% degradation)
CN1CCC[C@@H]1c1cc2cnc(NC(=O)c3ccc(OCCC#Cc4cccc5c4CN(C4CCC(=O)NC4=O)C5=O)cc3)cc2[nH]1 (stereo partly drawn) [Example 19, 4-((4-(2-(2,6-dioxopiperidin-3-yl)-1-oxoisoindolin-4-yl)but-3-yn-1-yl)oxy)-N-(2-((R)-1-methylpyrrolidin-2-yl)-1H-pyrrolo[3,2-c]pyridin-6-yl)benzamide]	B (Category B: 50% ≤ B < 75% degradation)	A (Category A: A ≥ 75% degradation)	A (Category A: A ≥ 75% degradation)
CN1CCC[C@@H]1c1cc2cnc(NC(=O)c3ccc(-c4cnn(CCCC#Cc5cccc6c5CN(C5CCC(=O)NC5=O)C6=O)c4)cc3)cc2[nH]1 (stereo partly drawn) [Example 21, 4-(1-(5-(2-(2,6-dioxopiperidin-3-yl)-1-oxoisoindolin-4-yl)pent-4-yn-1-yl)-1H-pyrazol-4-yl)-N-(2-((R)-1-methylpyrrolidin-2-yl)-1H-pyrrolo[3,2-c]pyridin-6-yl)benzamide]	A (Category A: A ≥ 75% degradation)	A (Category A: A ≥ 75% degradation)	B (Category B: 50% ≤ B < 75% degradation)
CN1CCC[C@@H]1c1cc2cnc(NC(=O)c3ccc(OCC#Cc4cccc5c4CN(C4CCC(=O)NC4=O)C5=O)c(Cl)c3)cc2[nH]1 (stereo partly drawn) [Example 23, 3-chloro-4-((3-(2-(2,6-dioxopiperidin-3-yl)-1-oxoisoindolin-4-yl)prop-2-yn-1-yl)oxy)-N-(2-((R)-1-methylpyrrolidin-2-yl)-1H-pyrrolo[3,2-c]pyridin-6-yl)benzamide]	C (Category C: 25% ≤ C < 50% degradation)	C (Category C: 25% ≤ C < 50% degradation)	C (Category C: 25% ≤ C < 50% degradation)
CN1CCC[C@@H]1c1cc2cnc(NC(=O)c3cccc(OCCCCCCCC#Cc4cccc5c4C(=O)N(C4CCC(=O)NC4=O)C5=O)c3)cc2[nH]1 (stereo partly drawn) [Example 26, 3-((9-(2-(2,6-dioxopiperidin-3-yl)-1,3-dioxoisoindolin-4-yl)non-8-yn-1-yl)oxy)-N-(2-((R)-1-methylpyrrolidin-2-yl)-1H-pyrrolo[3,2-c]pyridin-6-yl)benzamide]	D (Category D: D < 25% degradation)	D (Category D: D < 25% degradation)	C (Category C: 25% ≤ C < 50% degradation)
CN1CCC[C@@H]1c1cc2cnc(NC(=O)CCCCCCNc3ccc4c(c3)C(=O)N(C3CCC(=O)NC3=O)C4=O)cc2[nH]1 (stereo partly drawn) [Example 27, 7-{[2-(2,6-dioxopiperidin-3-yl)-1,3-dioxoisoindol-5-yl]amino}-N-{2-[(2R)-1-methylpyrrolidin-2-yl]-1H-pyrrolo[3,2-c]pyridin-6-yl}heptanamide]	C (Category C: 25% ≤ C < 50% degradation)	C (Category C: 25% ≤ C < 50% degradation)	B (Category B: 50% ≤ B < 75% degradation)
CN1CCC[C@@H]1c1cc2cnc(NC(=O)CCCCCCNc3cccc4c3C(=O)N(C3CCC(=O)NC3=O)C4=O)cc2[nH]1 (stereo partly drawn) [Example 29, 7-{[2-(2,6-dioxopiperidin-3-yl)-1,3-dioxoisoindol-4-yl]amino}-N-{2-[(2R)-1-methylpyrrolidin-2-yl]-1H-pyrrolo[3,2-c]pyridin-6-yl}heptanamide]	D (Category D: D < 25% degradation)	C (Category C: 25% ≤ C < 50% degradation)	A (Category A: A ≥ 75% degradation)
CN1CCC[C@@H]1c1cc2cnc(NC(=O)CCCCCCCCNc3cccc4c3C(=O)N(C3CCC(=O)NC3=O)C4=O)cc2[nH]1 (stereo partly drawn) [Example 30, 9-{[2-(2,6-dioxopiperidin-3-yl)-1,3-dioxoisoindol-4-yl]amino}-N-{2-[(2R)-1-methylpyrrolidin-2-yl]-1H-pyrrolo[3,2-c]pyridin-6-yl}nonanamide]	C (Category C: 25% ≤ C < 50% degradation)	B (Category B: 50% ≤ B < 75% degradation)	A (Category A: A ≥ 75% degradation)
CN1CCC[C@@H]1c1[nH]c2cc(NC(=O)CCCCCCNc3cccc4c3C(=O)N(C3CCC(=O)NC3=O)C4=O)ncc2c1Cl (stereo partly drawn) [Example 33, N-{3-chloro-2-[(2R)-1-methylpyrrolidin-2-yl]-1H-pyrrolo[3,2-c]pyridin-6-yl}-7-{[2-(2,6-dioxopiperidin-3-yl)-1,3-dioxoisoindol-4-yl]amino}heptanamide]	B (Category B: 50% ≤ B < 75% degradation)	A (Category A: A ≥ 75% degradation)	A (Category A: A ≥ 75% degradation)
CN1CCC[C@@H]1c1cc2cnc(NC(=O)c3ccc(-c4cnn(CCCC5CCN(c6cccc7c6C(=O)N(C6CCC(=O)NC6=O)C7=O)CC5)c4)cc3)cc2[nH]1 (stereo partly drawn) [Example 34, 4-[1-(3-{1-[2-(2,6-dioxopiperidin-3-yl)-1,3-dioxoisoindol-4-yl]piperidin-4-yl}propyl)pyrazol-4-yl]-N-{2-[(2R)-1-methylpyrrolidin-2-yl]-1H-pyrrolo[3,2-c]pyridin-6-yl}benzamide]		A (Category A: A ≥ 75% degradation)	A (Category A: A ≥ 75% degradation)

Next, values leading:

MLLT1 % Degradation @ 0.01 µM	MLLT1 % Degradation @ 0.1 µM	MLLT 1 % Degradation @ 1 µM	Structure (SMILES)
A (Category A: A ≥ 75% degradation)	A (Category A: A ≥ 75% degradation)	A (Category A: A ≥ 75% degradation)	CN1CCC[C@@H]1c1cc2cnc(NC(=O)c3ccc(-c4cnn(CCCC#Cc5ccc6c(c5)CN(C5CCC(=O)NC5=O)C6=O)c4)cc3)cc2[nH]1 (stereo partly drawn) [Example 22, 4-(1-(5-(2-(2,6-dioxopiperidin-3-yl)-1-oxoisoindolin-5-yl)pent-4-yn-1-yl)-1H-pyrazol-4-yl)-N-(2-((R)-1-methylpyrrolidin-2-yl)-1H-pyrrolo[3,2-c]pyridin-6-yl)benzamide]
A (Category A: A ≥ 75% degradation)	A (Category A: A ≥ 75% degradation)	A (Category A: A ≥ 75% degradation)	C[C@@H](C#Cc1cccc2c1CN(C1CCC(=O)NC1=O)C2=O)Oc1ccc(C(=O)Nc2cc3[nH]c([C@H]4CCCN4C)cc3cn2)cc1 (stereo partly drawn) [Example 24, 4-(((2S)-4-(2-(2,6-dioxopiperidin-3-yl)-1-oxoisoindolin-4-yl)but-3-yn-2-yl)oxy)-N-(2-((R)-1-methylpyrrolidin-2-yl)-1H-pyrrolo[3,2-c]pyridin-6-yl)benzamide]
A (Category A: A ≥ 75% degradation)	A (Category A: A ≥ 75% degradation)	A (Category A: A ≥ 75% degradation)	C[C@H](C#Cc1cccc2c1CN(C1CCC(=O)NC1=O)C2=O)Oc1ccc(C(=O)Nc2cc3[nH]c([C@H]4CCCN4C)cc3cn2)cc1 (stereo partly drawn) [Example 25, 4-(((2R)-4-(2-(2,6-dioxopiperidin-3-yl)-1-oxoisoindolin-4-yl)but-3-yn-2-yl)oxy)-N-(2-((R)-1-methylpyrrolidin-2-yl)-1H-pyrrolo[3,2-c]pyridin-6-yl)benzamide]
A (Category A: A ≥ 75% degradation)	A (Category A: A ≥ 75% degradation)	A (Category A: A ≥ 75% degradation)	CN1CCC[C@@H]1c1cc2cnc(NC(=O)c3ccc(-c4cnn(CCCC5CCN(c6cccc7c6CN(C6CCC(=O)NC6=O)C7=O)CC5)c4)cc3)cc2[nH]1 (stereo partly drawn) [Example 35, 4-[1-(3-{1-[2-(2,6-dioxopiperidin-3-yl)-1-oxo-3H-isoindol-4-yl]piperidin-4-yl}propyl)pyrazol-4-yl]-N-{2-[(2R)-1-methylpyrrolidin-2-yl]-1H-pyrrolo[3,2-c]pyridin-6-yl}benzamide]
A (Category A: A ≥ 75% degradation)	A (Category A: A ≥ 75% degradation)	A (Category A: A ≥ 75% degradation)	CN1CCC[C@@H]1c1cc2cnc(NC(=O)c3ccc(CCCNc4cccc5c4C(=O)N(C4CCC(=O)NC4=O)C5=O)cc3)cc2[nH]1 (stereo partly drawn) [Example 36, 4-(3-{[2-(2,6-dioxopiperidin-3-yl)-1,3-dioxoisoindol-4-yl]amino}propyl)-N-{2-[(2R)-1-methylpyrrolidin-2-yl]-1H-pyrrolo[3,2-c]pyridin-6-yl}benzamide]

Source: patent EP4667467A1, “PROTAC DEGRADERS OF MLLT1 AND/OR MLLT3” (Dark Blue Therapeutics Ltd, priority 2024, dated 2025)
